Measurements reported in EP0240392A1, “Compounds of the cyclophosphazene type, process for their preparation and pharmaceutical preparation containing them” (CENTRE NATIONAL DE LA RECHERCHE SCIENTIFIQUE (CNRS), priority 1986, dated 1987).
Marks after values point to notes of the source that are not given here.

Columns and labels:
[1] = test system: ERYTH[…] K562; experiment: Growth of human erythroleukemia K562 in vitro; type: cell-based, humaine
[2] = test system: MELANOME B16; experiment: Antitumour activity on B16 melanoma implanted i.m. in mice; type: in vivo, souris C57B1/6
Excerpt: Les tests d'activité antitumorale ont été conduits au sein du Screening and Pharmacology Group de l'E.O.R.T.C., implanté à l'Institut Mario Negri de Milan.
Ces essais ont été conduits soit en mono-injection à différentes doses au jour J+1 suivant la greffe de la tumeur, soit en poly-injections chroniques Q1D, soit en protocoles Q4D.
L'activité antitumorale est mesurée par le rapport T/C %, T (en jours) étant le durée moyenne de vie des souris traitées, C (en jours) étant la durée moyenne de vie des souris témoins.
L'effet thérapeutique est considéré comme significatif quant T/C % est supérieur ou égal à 125.

[3] = 200 mg/kg i.p. j 1,5,9, jour 27

Question: How did the “Nombre de cellules x 10^4” value ([1]; 0,01 µg/ml, 24 heures) turn out when `C(CCN1CCCNP12=NP(N1CC1)(N1CC1)=NP(N1CC1)(N1CC1)=N2)CN1CCCNP12=NP(N1CC1)(N1CC1)=NP(N1CC1)(N1CC1)=N2` (stereo not drawn) [SPM] was run?
Answer: Its value is 20,7 ± 1,7 x 10^4.

Question: And the “Nombre de cellules x 10^4” value ([1]; 0,1 µg/ml, 24 heures)?
Answer: The value was 17,8 ± 1,7 x 10^4.

Question: What about the “Nombre de cellules x 10^4” value ([1]; 0,01 µg/ml, 48 heures) of the same compound?
Answer: Its value is 41,5 ± 1,6 x 10^4.

Question: What about the “Nombre de cellules x 10^4” value ([1]; 0,1 µg/ml, 48 heures) of the same compound?
Answer: Its value is 37,2 ± 4,5 x 10^4.

Question: What about the “Nombre de cellules x 10^4” value ([1]; 0,01 µg/ml, 72 heures) of the same compound?
Answer: The value was 60,7 ± 5,8 x 10^4.

Question: And the “Nombre de cellules x 10^4” value ([1]; 0,1 µg/ml, 72 heures)?
Answer: The value was 60,6 ± 5,4 x 10^4.

Question: What about the “Nombre de cellules x 10^4” value ([1]; 1 µg/ml, 24 heures) of the same compound?
Answer: The value was 17,8 ± 3,3 x 10^4.

Question: What about the “Nombre de cellules x 10^4” value ([1]; 1 µg/ml, 48 heures) of the same compound?
Answer: The value was 36,4 ± 1,8 x 10^4.

Question: And the “Nombre de cellules x 10^4” value ([1]; 1 µg/ml, 72 heures)?
Answer: Its value is 50,9 ± 4,3 x 10^4.

Question: And the “Nombre de cellules x 10^4” value ([1]; 5 µg/ml, 24 heures)?
Answer: The value was 17,3 ± 1,4 x 10^4.

Question: And the “Nombre de cellules x 10^4” value ([1]; 5 µg/ml, 48 heures)?
Answer: The value was 20,9 ± 2,1 x 10^4.

Question: And the “Nombre de cellules x 10^4” value ([1]; 5 µg/ml, 72 heures)?
Answer: The value was 35,5 ± 2,0 x 10^4.

Question: And the “Nombre de cellules x 10^4” value ([1]; 10 µg/ml, 24 heures)?
Answer: Its value is 17,4 ± 0,9 x 10^4.

Question: And the “Nombre de cellules x 10^4” value ([1]; 10 µg/ml, 48 heures)?
Answer: Its value is 21,1 ± 0,2 x 10^4.

Question: And the “Nombre de cellules x 10^4” value ([1]; 10 µg/ml, 72 heures)?
Answer: Its value is 26,9 ± 2,3 x 10^4.

Question: What about the “Nombre de cellules x 10^4” value ([1]; 50 µg/ml, 24 heures) of the same compound?
Answer: Its value is 13,2 ± 1,7 x 10^4.

Question: And the “Nombre de cellules x 10^4” value ([1]; 50 µg/ml, 48 heures)?
Answer: Its value is 15,0 ± 1,5 x 10^4.

Question: What about the “Nombre de cellules x 10^4” value ([1]; 50 µg/ml, 72 heures) of the same compound?
Answer: The value was 17,4 ± 1,3 x 10^4.

Question: And the “Nombre de cellules x 10^4” value ([1]; 100 µg/ml, 24 heures)?
Answer: The value was 11,6 ± 0,4 x 10^4.

Question: And the “Nombre de cellules x 10^4” value ([1]; 100 µg/ml, 48 heures)?
Answer: Its value is 14,7 ± 0,1 x 10^4.

Question: And the “Nombre de cellules x 10^4” value ([1]; 100 µg/ml, 72 heures)?
Answer: The value was 15,0 ± 0,8 x 10^4.

Question: And the “effet sur la croissance in vitro de l'érythroleucémie humaine K562 (result in words)” value ([1]; in vitro, MYCLAz: même à dose toxique)?
Answer: Its value is “inhibe d'une manière très remarquable la croissance in vitro”.

Question: And the “amplitude de la plage de doses à effet significatif” value ([1]; ratio of highest to lowest significant dose)?
Answer: Its value is ≥ 10 000.

Question: And the “T/C (%)” value ([2]; 100 mg/kg i.p. j 1-9)?
Answer: Its value is 103%.

Question: What about the “Volume moyen de la tumeur (cm^3 ± S.E.)” value ([2]; 100 mg/kg i.p. j 1-9, jour 17) of the same compound?
Answer: Its value is 1,01±0,15 cm^3.

Question: What about the “Volume moyen de la tumeur (cm^3 ± S.E.)” value ([2]; 100 mg/kg i.p. j 1-9, jour 20) of the same compound?
Answer: The value was 1,71±0,13* cm^3.

Question: What about the “Volume moyen de la tumeur (cm^3 ± S.E.)” value ([2]; 100 mg/kg i.p. j 1-9, jour 24) of the same compound?
Answer: Its value is 3,39±0,34* cm^3.

Question: And the “Volume moyen de la tumeur (cm^3 ± S.E.)” value ([2]; 100 mg/kg i.p. j 1-9, jour 27)?
Answer: The value was 3,75±0,29 cm^3.

Question: What about the “nombre de souris vivantes/total” value ([2]; 100 mg/kg i.p. j 1-9, jour 27) of the same compound?
Answer: The value was 9/10.

Question: And the “T/C (%)” value ([2]; 200 mg/kg i.p. j 1,5,9)?
Answer: Its value is 120%.

Question: What about the “Volume moyen de la tumeur (cm^3 ± S.E.)” value ([2]; 200 mg/kg i.p. j 1,5,9, jour 13) of the same compound?
Answer: The value was 0,52±0,08* cm^3.

Question: And the “Volume moyen de la tumeur (cm^3 ± S.E.)” value ([2]; 200 mg/kg i.p. j 1,5,9, jour 17)?
Answer: The value was 1,17±0,14* cm^3.

Question: What about the “Volume moyen de la tumeur (cm^3 ± S.E.)” value ([2]; 200 mg/kg i.p. j 1,5,9, jour 20) of the same compound?
Answer: Its value is 1,66±0,15* cm^3.

Question: What about the “Volume moyen de la tumeur (cm^3 ± S.E.)” value ([2]; 200 mg/kg i.p. j 1,5,9, jour 24) of the same compound?
Answer: The value was 3,72±0,29* cm^3.

Question: What about the “Volume moyen de la tumeur (cm^3 ± S.E.)” value [2, 3] of the same compound?
Answer: The value was 4,98±0,56 cm^3.

Question: And the “nombre de souris vivantes/total” value [2, 3]?
Answer: The value was 8/10.

Question: What about the “T/C (%)” value ([2]; 200 mg/kg i.p. j 1-9) of the same compound?
Answer: Its value is 138%.

Question: What about the “Volume moyen de la tumeur (cm^3 ± S.E.)” value ([2]; 200 mg/kg i.p. j 1-9, jour 20) of the same compound?
Answer: Its value is 0,12±0,08* cm^3.

Question: What about the “Volume moyen de la tumeur (cm^3 ± S.E.)” value ([2]; 200 mg/kg i.p. j 1-9, jour 24) of the same compound?
Answer: Its value is 1,22±0,17* cm^3.

Question: What about the “Volume moyen de la tumeur (cm^3 ± S.E.)” value ([2]; 200 mg/kg i.p. j 1-9, jour 27) of the same compound?
Answer: The value was 2,06±0,23 cm^3.

Question: What about the “nombre de souris vivantes/total” value ([2]; 200 mg/kg i.p. j 1-9, jour 27) of the same compound?
Answer: The value was 9/9.

Question: What about the “T/C (%)” value ([2]; 300 mg/kg i.p. j 1,5,9) of the same compound?
Answer: The value was 104%.

Question: And the “Volume moyen de la tumeur (cm^3 ± S.E.)” value ([2]; 300 mg/kg i.p. j 1,5,9, jour 13)?
Answer: The value was 0,44±0,06* cm^3.

Question: And the “Volume moyen de la tumeur (cm^3 ± S.E.)” value ([2]; 300 mg/kg i.p. j 1,5,9, jour 17)?
Answer: The value was 1,72±0,12* cm^3.

Question: What about the “Volume moyen de la tumeur (cm^3 ± S.E.)” value ([2]; 300 mg/kg i.p. j 1,5,9, jour 20) of the same compound?
Answer: The value was 2,67±0,24* cm^3.
